How the values were obtained:
caspase-3 [1] = assay: Caspase-3 assay in SAT-reporter-transformed HEK293 cells after apoptosis inducers; assay type: cell-based, human; conditions: confluent HEK293, 1-5 μM staurosporin for 8 hrs.
F9-1-13 cells = assay: Cell-based FRET reporter assay in F9-1-13 (SgAT) cells; design: species or system human
Text: Transfection of pcDNA3VH-SgAT and pcDNA3VH-SnAT into U-138 cells (using methods described above) resulted initially in few colonies and FRET signal was lost in many clones during expansion, however, from among the various subclones the F9-1-13 (pcDNA3VH-SgAT transfected; ATCC No. PTA-84) and F10-24-2 (pcDNA3-SnAT transfected) subclones were eventually expanded and shown to express stable FRET signals. As desired, the FRET signal expressed in F9-1-13 decreased in response to both staurosporin and anti-Fas antibody treatment of cells, while the FRET signal expressed by the F10-24-2 control cells, (i.e., lacking a caspase substrate domain), was unaffected following staurosporin or anti-Fas antibody treatment. […] F9-1-13 therefore appeared suitable for microtiter assays, and perhaps use in HTS assays for screening to identify and select modulators of apoptosis.
Studies were initiated to adapt the experimental cell-based FRET assay of EXAMPLE 5 to a format suitable for use in high-throughput screening. First, the assay was scaled down from a 24-well to a 96-well plate format. Cells from three different F9 parental cultures were plated in a black-sided 96-well plates (Costar #3904) at a density of 32,000 cells/well (˜1×10^5 cells/cm^2); allowed to adhere overnight; and then the media was replaced with either 100 μl fresh media containing inducer (5 μM staurosporin in 0.25% DMSO vehicle) or 100 μl containing only vehicle (0.25% DMSO). After an overnight incubation, fluorescence measurements were made to evaluate FRET signal changes. […] The assay therefore appeared to be adaptable to a 96-well format but it was not initially clear how signal might be improved to increase the signal-to-background ratio.
A 96-well FRET assay was evaluated for inter-assay well variability and inter-plate variability. Possible signal drift during measurement of the FRET fluorescence signal was evaluated using one of two different robotics-compatible rapid fluorescence plate readers (SpeedReader or Cytofluor II). After plating at an initial density of about 60,000 cells/well, and overnight culture F9-1-13 cells were treated with 5 μM staurosporin, or vehicle. After an overnight incubation in staurosporin (i.e., 16-24 hrs.), the plates were either washed, or not washed, and then assayed repeatedly over the next 1.5 hours using either of the plate readers. […] However, using the same assay conditions but with anti-Fas antibody as an inducer, different results were recorded. […] The basis for the observed differences in measuring devices is not clear, but may relate to the design of the light source and/or the sensitivity of the detection circuitry in the two different respective fluorescence readers as well as possible different means for optically or digitally subtracting background incident radiation.
Assay Confirmation: The following experiment was performed to validate the ability of the 96-well FRET assay to detect inhibitors of apoptosis: namely, F9-1-13 cells (n=5 wells) were treated with 50-100 μM Z-VAD-fmk (a broad spectrum caspase inhibitor) or vehicle (n=55) in randomized wells of a 96-well plate. All of these wells, and six additional positive control wells (i.e., lacking the inhibitor), were treated with 5 μM staurosporine in 0.25% DMSO vehicle. Six negative control wells were treated with vehicle only (0.25% DMSO). After overnight incubation, FRET signal changes were evaluated as described above.
Three alternatives to staurosporine induction were evaluated: serum withdrawal; c2-ceramide treatment; and induction via engagement of the CD95/Fas receptor with anti-Fas antibody. […] To increase the proportion of adherent cells, poly-D-lysine and 0.1% gelatin were evaluated in anti-Fas antibody treated F9-1-13 cells. […] Anti-Fas antibody was therefore chosen as a preferred inducer of apoptosis for high-throughput screening. […]

caspase-3 [2] = assay: Inducibility and kinetics of apoptosis in U-138 cells (caspase-3 activity, inter-nucleosomal DNA fragmentation); assay type: cell-based, human
Description: DNA Fragmentation ELISA: Apoptosis-induced inter-nucleosomal fragmentation of chromosomal DNA was quantified using the “Cell Death Detection ELISA^PLUS” (Boehringer Mannheim) according to the manufacturer's instructions. Briefly, ˜10^4 cells/well were plated on a poly-D-lysine-coated 96-well plate and treated for various periods of times with different apoptosis-inducing agents. The cells were lysed and the nuclei and membranes were pelleted. An aliquot of the cytoplasm-containing supernatant was then transferred to a streptavidin-coated microtiter plate and incubated with anti-histone-biotin and anti-DNA-peroxidase, resulting in the formation of “sandwich” antibody complexes, i.e., (anti-DNA-peroxidase)-(nucleosomal-DNA-containing-histone) -(anti-histone-biotin)-(streptavidin-microtiter plate). Unbound antibody was removed by washing. Peroxidase substrate (i.e., ABTS) was added and nucleosomal DNA complexes quantified by spectrophotometric analysis of the colored peroxidase reaction product.
Caspase-3 Assay: Caspase-3 activity was assayed according to the following protocol. Cells plated and treated as above were washed in 1×PBS and lysed in 1×assay buffer (1 mM DTT, 1% Triton X-100, 0.5% Tween-20 in 1×PBS, pH 7.2). […] Fluorescence readings were taken on the Cytofluor II plate reader (excitation 360 nm, emission 460 nm, 6 reads/well, gain 50).

Question: What does the source list for `CN[C@@H]1C[C@H]2O[C@@](C)([C@@H]1OC)n1c3ccccc3c3c4c(c5c6ccccc6n2c5c31)C(=O)NC4` [staurosporin]?
Answer: increase in caspase-3 activity over background (caspase-3 [1]): 6- to 10 fold; FRET signal compared to the vehicle control (F9-1-13 cells; 96-well, three F9 parental cultures, 32,000 cells/well, 5 μM overnight): significant (P<0.05) reduction in the FRET signal; time to measurable changes in FRET signal (F9-1-13 cells; 60,000 cells/well, 5 μM, either fluorescence reader): ≤ 4 h; FRET signal response to inducer treatment (F9-1-13 cells; F9-1-13 subclone): decreased; FRET reporter cleavage by western blot after induction (F9-1-13 cells; staurosporin induction): significant (but not complete) cleavage of reporter; time at which caspase-3 activity and inter-nucleosomal DNA fragmentation were maximally altered (caspase-3 [2]; 5 μM staurosporin, minimal at 4 hrs., intermediate by 8 hrs.): 16 to 24 h; inducibility of caspase-3 activity (caspase-3 [2]; 30-300 μM etoposide or 1.5-15.0 μM staurosporin, 8 hrs.): inducible with staurosporin
